Assay results taken from patent publication US20190224147A1, “CETP MODULATOR FOR USE IN THE TREATEMENT OF EYE DISEASE” (Hoffmann-La Roche Inc., priority 2013, published 2019).
Marks after values point to notes of the source that are not given here.

Tests used:
[1] = Golden Syrian hamsters study b: lutein and zeaxanthin levels in plasma and liver; format: in vivo; conditions: hamsters fed 0.1% FLORAGLO, 14 days, dalcetrapib 0.320% (~300 mg/kg) or anacetrapib 0.024% (~25 mg/kg) in diet
Method: (§1) Hamsters (7 weeks-old) were fed a standard rodent chow diet containing 4.5% fat and 0.05% cholesterol and coconut oil (70 g/kg dry food) for 14 days. After 2 weeks of high-fat diet feeding, hamsters were allocated to 3 experimental treatment groups of 10 animals each based on plasma lipid levels, and provided the same diet as before supplemented with 0.1% (w/w) FLORAGLO (same composition as for Study 2) and either no treatment (group 1), dalcetrapib at 0.320% (w:w, ˜300 mg/kg, group 2), or anacetrapib at 0.024% (w:w, ˜25 mg/kg, group 3). After 14 days of treatment, plasma and livers were collected for lutein and zeaxanthin analysis as described in study a.

[2] = Golden Syrian hamsters study b: additional variables measured (cholesterol fractions, triglycerides); format: in vivo; conditions: 14 days, dalcetrapib ~300 mg/kg or anacetrapib ~25 mg/kg in diet
Method: as §1, with “3).” for “3). After 14 days of treatment, plasma and livers were collected for lutein and zeaxanthin analysis as described in study a.”

E-selectin expression = conditions: pre-incubation of human aortic endothelial cells; Martin K R et al, Atherosclerosis 2000; cited from earlier work
VCAM-1 expression = conditions: pre-incubation of human aortic endothelial cells; Martin K R et al, Atherosclerosis 2000; cited from earlier work
ICAM-1 = conditions: pre-treatment of human aortic endothelial cells; Martin K R et al, Atherosclerosis 2000; cited from earlier work
[3] = Golden Syrian hamsters study a: lutein and zeaxanthin levels in plasma, liver and eyecups (HPLC-MS); format: in vivo; conditions: hamsters fed 0.1% FLORAGLO, dalcetrapib 0.375% food admixture (~400 mg/kg), 14 days
Method: Hamsters (7 weeks-old) were fed a standard rodent chow diet containing 4.5% fat and 0.05% cholesterol and coconut oil (70 g/kg dry food) for 14 days. After two weeks of feeding, hamsters were allocated to 2 experimental groups of 10 animals and given the same diet as before supplemented with 0.1% (w:w) FLORAGLO (lutein 5.2%, zeaxanthin 0.5%, DSM Nutritional Products): group 1 received no treatment, group 2 was given dalcetrapib as a 0.375% food admixture (˜400 mg/kg).
After 14 days of treatment and 4 hours of fasting, plasma, liver and eyes were collected and kept frozen until analysis. Lutein and zeaxanthin levels in plasma, liver and the pooled eyecups from 2 hamsters were determined by HPLC-MS using cryptoxanthin as internal standard. Plasma samples were directly extracted with hexane/ethyl acetate in dark environment in the presence of BHT. Liver samples and pooled eye cups (n=4) were first homogenized in the presence of BHT using an appropriate solvent in a Precellys tissue homogenizer followed by saponification prior extraction with hexane/ethyl acetate. The organic phase was washed with water. All organic phases were dried and reconstituted in methanol containing 0.1%. HPLC-MS was accomplished on a Waters TQ-S in APCI mode coupled to an Acquity I-class UPLC (Waters AG, Baden-Dättwil) on an ACCLAIM C30 RP column (Thermo Fisher Scientific, Reinach).

Row | Structure (SMILES) | Change in liver lutein, in % vs control [1] | Change in liver zeaxanthin, in % vs control [1] | Change in plasma lutein, in % vs control [1] | Change in plasma zeaxanthin, in % vs control [1] | Triglycerides, in % vs control [2] | VLDL-C, in % vs control [2] | reduced E-selectin expression (E-selectin expression) [%] | reduced VCAM-1 expression (VCAM-1 expression) [%] | reduced the expression of ICAM-1 (ICAM-1) [%] | further results
1 | COc1cc(F)c(C(C)C)cc1-c1ccc(C(F)(F)F)cc1CN1C(=O)O[C@H](c2cc(C(F)(F)F)cc(C(F)(F)F)c2)[C@@H]1C [anacetrapib] | −32% | −31% | ns | ns | ns | ns |  |  |  | HDL-C, in % vs control [2]: +54*** %; LDL-C, in % vs control [2]: −99*** %; Total cholesterol, in % vs control [2]: +28** %
2 | CC1=C(/C=C/C(C)=C/C=C/C(C)=C/C=C/C=C(C)/C=C/C=C(C)/C=C/C2=C(C)CCCC2(C)C)C(C)(C)CCC1 [beta-carotene] |  |  |  |  |  |  | 38 | 29 | 11 | 
3 | CCC(CC)CC1(C(=O)Nc2ccccc2SC(=O)C(C)C)CCCCC1 [dalcetrapib, S-[2-([[1-(2-ethylbutyl)-cyclohexyl]-carbonyl]amino)phenyl]2-methylpropanethioate] | +90% | +109% | +95% | +101% | −37** % | −27* % |  |  |  | Change in liver lutein, in % vs control ([3]; liver): +107%; Change in liver zeaxanthin, in % vs control ([3]; liver): +222.9%; Change in plasma lutein, in % vs control ([3]; plasma): +55.7%; Change in plasma zeaxanthin, in % vs control ([3]; plasma): +164%; Change in eyecups lutein, in % vs control ([3]; pooled eyecups): +164.6%; Change in eyecups zeaxanthin, in % vs control ([3]; pooled eyecups): +114%
4 | CC1=C[C@H](O)CC(C)(C)[C@H]1/C=C/C(C)=C/C=C/C(C)=C/C=C/C=C(C)/C=C/C=C(C)/C=C/C1=C(C)C[C@@H](O)CC1(C)C [lutein, (3R,3′R,6′R)-β,ε-Carotene-3,3′-diol] |  |  |  |  |  |  | 34 | 28 | 14 | 
5 | CC(C)=CCC/C(C)=C/C=C/C(C)=C/C=C/C(C)=C/C=C/C=C(C)/C=C/C=C(C)/C=C/C=C(\C)CCC=C(C)C [lycopene] |  |  |  |  |  |  |  | 13 | 18 | 
